{
  "source": "ChEMBL document CHEMBL5518177",
  "about": "“Discovery of GPX4 inhibitors through FP-based high-throughput screening” (Eur J Med Chem, 2024)",
  "key": {"[1]": {"experiment": "Binding affinity to N-terminal 6His-TEV-tagged recombinant human GPX4-U46C-C10A-C66A mutant (Met1 to Phe170 residues) expressed in Escherichia coli BL21 (DE3) cells incubated for 20 mins in presence of FITC-labeled peptide by fluorescence polarization based competitive binding assay", "assay_type": "cell-based"}, "[2]": {"experiment": "Inhibition of N-terminal 6His-TEV-tagged recombinant human GPX4-U46C-C10A-C66A mutant (Met1 to Phe170 residues) expressed in Escherichia coli BL21 (DE3) cells incubated for 20 mins by fluorescence polarization based high-throughput screening assay"}, "Homo sapiens [3]": {"species_on_record": "Homo sapiens", "experiment": "Inhibition of N-terminal 6His-TEV-tagged recombinant human GPX4-U46C-C10A-C66A mutant (Met1 to Phe170 residues) expressed in Escherichia coli BL21 (DE3) cells at 1 to 100 uM incubated for 20 mins by fluorescence polarization based high-throughput screening assay", "settings": "dose 1-100 µM"}, "Homo sapiens [4]": {"species_on_record": "Homo sapiens", "experiment": "(§1) Inhibition of N-terminal 6His-TEV-tagged recombinant human GPX4-U46C-C10A-C66A mutant (Met1 to Phe170 residues) expressed in Escherichia coli BL21 (DE3) cells using tert-butyl peroxide as substrate assessed as Vmax at 30 uM preincubated for 10 mins in presence of NADPH and GSH followed by substrate addition and measured after 30 mins by absorbance based plate reader analysis (reference value: 0.556 +/- 0.058 nM/min)", "settings": "time 40.0 min"}, "Homo sapiens [5]": {"species_on_record": "Homo sapiens", "experiment": "as §1, with “as Km” for “as Vmax”, “at 50” for “at 30”, “value: 36.04” for “value: 0.556”, “+/- 7.80 microM)” for “+/- 0.058 nM/min)”", "settings": "time 40.0 min"}, "Homo sapiens [6]": {"species_on_record": "Homo sapiens", "experiment": "Reversible inhibition of N-terminal 6His-TEV-tagged recombinant human GPX4-U46C-C10A-C66A mutant (Met1 to Phe170 residues) expressed in Escherichia coli BL21 (DE3) cells by mass spectrum analysis"}, "Homo sapiens [7]": {"species_on_record": "Homo sapiens", "experiment": "Inhibition of N-terminal 6His-TEV-tagged recombinant human GPX4-U46C-C10A-C66A mutant (Met1 to Phe170 residues) expressed in Escherichia coli BL21 (DE3) cells using tert-butyl peroxide as substrate assessed as Vmax at 10 uM preincubated for 10 mins in presence of NADPH and GSH followed by substrate …", "settings": "time 40.0 min"}, "Homo sapiens [8]": {"species_on_record": "Homo sapiens", "experiment": "as §1, with “Km” for “Vmax”, “36.04” for “0.556”, “7.80 microM)” for “0.058 nM/min)”", "settings": "time 40.0 min"}, "Homo sapiens [9]": {"species_on_record": "Homo sapiens", "experiment": "as §1, with “at 20” for “at 30”", "settings": "time 40.0 min"}, "Homo sapiens [10]": {"species_on_record": "Homo sapiens", "experiment": "as §1, with “as Km” for “as Vmax”, “at 20” for “at 30”, “value: 36.04” for “value: 0.556”, “+/- 7.80 microM)” for “+/- 0.058 nM/min)”", "settings": "time 40.0 min"}, "Homo sapiens [11]": {"species_on_record": "Homo sapiens", "experiment": "Non-covalent binding to N-terminal 6His-TEV-tagged recombinant human GPX4-U46C-C10A-C66A mutant (Met1 to Phe170 residues) expressed in Escherichia coli BL21 (DE3) cells by mass spectrum analysis"}, "Homo sapiens [12]": {"species_on_record": "Homo sapiens", "experiment": "Inhibition of N-terminal 6His-TEV-tagged recombinant human GPX4-U46C-C10A-C66A mutant (Met1 to Phe170 residues) expressed in Escherichia coli BL21 (DE3) cells using tert-butyl peroxide as substrate assessed as Km at 10 uM preincubated for 10 mins in presence of NADPH and GSH followed by substrate …", "settings": "time 40.0 min"}, "Homo sapiens [13]": {"species_on_record": "Homo sapiens", "experiment": "as §1, with “as Km” for “as Vmax”, “at 40” for “at 30”, “value: 36.04” for “value: 0.556”, “+/- 7.80 microM)” for “+/- 0.058 nM/min)”", "settings": "time 40.0 min"}, "Homo sapiens [14]": {"species_on_record": "Homo sapiens", "experiment": "as §1, with “at 50” for “at 30”", "settings": "time 40.0 min"}, "[15]": {"experiment": "as §1, with “hydroperoxide” for “peroxide”, “substrate” for “substrate assessed as Vmax at 30 uM”, “analysis” for “analysis (reference value: 0.556 +/- 0.058 nM/min)”"}, "Homo sapiens [16]": {"species_on_record": "Homo sapiens", "experiment": "as §1, with “at 40” for “at 30”", "settings": "time 40.0 min"}, "[17]": {"experiment": "Binding affinity to N-terminal 6His-TEV-tagged recombinant human GPX4-U46C-C10A-C66A mutant (Met1 to Phe170 residues) expressed in Escherichia coli BL21 (DE3) cells assessed as dissociation constant incubated for 10 mins by microscale thermophoresis assay"}},
  "note": "The source made the active and inactive calls. The rule behind the calls is not given here.",
  "data": [
    {"smiles": "CCCc1c(NCS(=O)(=O)O)c(=O)n(-c2ccccc2)n1C", "values": [
      {"measurement": "IC50", "setting": "[1]", "value": "> 100", "unit": "µM"}
    ]},
    {"smiles": "CCc1c(NCS(=O)(=O)O)c(=O)n(-c2ccccc2)n1C", "values": [
      {"measurement": "IC50", "setting": "[1]", "value": "> 100", "unit": "µM"}
    ]},
    {"smiles": "Cc1c(NCS(=O)(=O)O)c(=O)n(-c2ccccc2Br)n1C", "values": [
      {"measurement": "IC50", "setting": "[1]", "value": 12.1, "unit": "µM"}
    ]},
    {"smiles": "Cc1c(NCS(=O)(=O)O)c(=O)n(-c2ccccc2)n1C", "values": [
      {"measurement": "IC50", "setting": "[1]", "value": 2.37, "unit": "µM"}
    ]},
    {"smiles": "CNC(=O)CN(C)c1c(C)n(C)n(-c2ccccc2)c1=O", "values": [
      {"measurement": "IC50", "setting": "[1]", "value": "> 100", "unit": "µM"}
    ]},
    {"smiles": "Cc1c(S(=O)(=O)O)oc2c1C(=O)C(=O)c1c-2ccc2c1CCCC2(C)C", "note": "[SODIUM TANSHINONE IIA SULFONATE]", "values": [
      {"measurement": "IC50", "setting": "[2]", "value": 13.8, "unit": "µM"},
      {"measurement": "inhibition", "setting": "Homo sapiens [3]", "value": "Active"}
    ]},
    {"smiles": "N[C@@H](CO)C(=O)NNCc1ccc(O)c(O)c1O", "values": [
      {"measurement": "IC50", "setting": "[2]", "value": 7.52, "unit": "µM"},
      {"measurement": "inhibition", "setting": "Homo sapiens [3]", "value": "Active"}
    ]},
    {"smiles": "Cc1c(NCS(=O)(=O)O)c(=O)n(-c2ccccc2-c2ccoc2)n1C", "values": [
      {"measurement": "IC50", "setting": "[1]", "value": 5.74, "unit": "µM"}
    ]},
    {"smiles": "Cc1c(N(C)CS(=O)(=O)O)c(=O)n(-c2ccccc2)n1C", "note": "[DIPYRONE SODIUM]", "values": [
      {"measurement": "IC50", "setting": "[1]", "value": 4.75, "unit": "µM"},
      {"measurement": "Vmax", "setting": "Homo sapiens [4]", "value": 0.345, "unit": "nM/min"},
      {"measurement": "IC50", "setting": "[2]", "value": 1.4, "unit": "µM"},
      {"measurement": "Km", "setting": "Homo sapiens [5]", "value": 11.9, "unit": "µM"},
      {"measurement": "inhibition", "setting": "Homo sapiens [6]", "value": "Dose-Dependent Effect"},
      {"measurement": "Vmax", "setting": "Homo sapiens [7]", "value": 0.439, "unit": "nM/min"},
      {"measurement": "Km", "setting": "Homo sapiens [8]", "value": 15.7, "unit": "µM"},
      {"measurement": "Vmax", "setting": "Homo sapiens [9]", "value": 0.361, "unit": "nM/min"},
      {"measurement": "Km", "setting": "Homo sapiens [10]", "value": 17.2, "unit": "µM"},
      {"measurement": "Activity", "setting": "Homo sapiens [11]", "value": "Active"},
      {"measurement": "Km", "setting": "Homo sapiens [12]", "value": 23.4, "unit": "µM"},
      {"measurement": "Km", "setting": "Homo sapiens [13]", "value": 12.1, "unit": "µM"},
      {"measurement": "inhibition", "setting": "Homo sapiens [3]", "value": "Active"},
      {"measurement": "Vmax", "setting": "Homo sapiens [14]", "value": 0.289, "unit": "nM/min"},
      {"measurement": "IC50", "setting": "[15]", "value": 31.1, "unit": "µM"},
      {"measurement": "Vmax", "setting": "Homo sapiens [16]", "value": 0.306, "unit": "nM/min"},
      {"measurement": "Kd", "setting": "[17]", "value": 5.23, "unit": "µM"}
    ]},
    {"smiles": "Cc1c(NCS(=O)(=O)O)c(=O)n(-c2ccccc2)n1C(C)C", "values": [
      {"measurement": "IC50", "setting": "[1]", "value": "> 100", "unit": "µM"}
    ]},
    {"smiles": "CCCn1c(C)c(NCS(=O)(=O)O)c(=O)n1-c1ccccc1", "values": [
      {"measurement": "IC50", "setting": "[1]", "value": 6.02, "unit": "µM"}
    ]},
    {"smiles": "Cc1c(NCS(=O)(=O)O)c(=O)n(-c2cccc(-c3ccc(Br)cc3)c2)n1C", "values": [
      {"measurement": "IC50", "setting": "[1]", "value": 9.63, "unit": "µM"}
    ]},
    {"smiles": "Cc1c(NCS(=O)(=O)O)c(=O)n(-c2ccccn2)n1C", "values": [
      {"measurement": "IC50", "setting": "[1]", "value": 3.54, "unit": "µM"}
    ]},
    {"smiles": "Cc1c(NCS(=O)(=O)O)c(=O)n(-c2cccc(-c3ccoc3)c2)n1C", "values": [
      {"measurement": "IC50", "setting": "[1]", "value": 5.89, "unit": "µM"}
    ]},
    {"smiles": "Cc1c(NCS(=O)(=O)O)c(=O)n(-c2cccc(Br)c2)n1C", "values": [
      {"measurement": "IC50", "setting": "[1]", "value": 10.3, "unit": "µM"}
    ]},
    {"smiles": "Cn1c(CO)c(NCS(=O)(=O)O)c(=O)n1-c1ccccc1", "values": [
      {"measurement": "IC50", "setting": "[1]", "value": 22.7, "unit": "µM"}
    ]},
    {"smiles": "O=c1oc2cc(O)ccc2s1", "note": "[TIOXOLONE]", "values": [
      {"measurement": "IC50", "setting": "[2]", "value": 5.18, "unit": "µM"},
      {"measurement": "inhibition", "setting": "Homo sapiens [3]", "value": "Active"}
    ]},
    {"smiles": "Cc1c(NCS(=O)(=O)O)c(=O)n(-c2ccc(-c3ccccc3)cc2)n1C", "values": [
      {"measurement": "IC50", "setting": "[1]", "value": "> 100", "unit": "µM"}
    ]},
    {"smiles": "C=CC1=C(C)C(=O)N/C1=C\\c1[nH]c(Cc2[nH]c(/C=C3\\NC(=O)C(C)=C3C=C)c(C)c2CCC(=O)O)c(CCC(=O)O)c1C", "values": [
      {"measurement": "IC50", "setting": "[2]", "value": 4.58, "unit": "µM"},
      {"measurement": "inhibition", "setting": "Homo sapiens [3]", "value": "Active"}
    ]},
    {"smiles": "Cc1c(NCS(=O)(=O)O)c(=O)n(-c2cccc(-c3ccccc3)c2)n1C", "values": [
      {"measurement": "IC50", "setting": "[1]", "value": "> 100", "unit": "µM"}
    ]},
    {"smiles": "Cc1c(NCS(=O)(=O)O)c(=O)n(-c2ccccc2-c2ccccc2)n1C", "values": [
      {"measurement": "IC50", "setting": "[1]", "value": 4.21, "unit": "µM"}
    ]},
    {"smiles": "CC(C)c1c(NCS(=O)(=O)O)c(=O)n(-c2ccccc2)n1C", "values": [
      {"measurement": "IC50", "setting": "[1]", "value": 4.6, "unit": "µM"}
    ]},
    {"smiles": "Cc1c(NCS(=O)(=O)O)c(=O)n(C2CCCCC2)n1C", "values": [
      {"measurement": "IC50", "setting": "[1]", "value": 2.53, "unit": "µM"}
    ]},
    {"smiles": "O=C(O)[C@H](O)Cc1ccc(O)c(O)c1", "values": [
      {"measurement": "IC50", "setting": "[2]", "value": 6.54, "unit": "µM"},
      {"measurement": "inhibition", "setting": "Homo sapiens [3]", "value": "Active"}
    ]},
    {"smiles": "Cc1c(NCC(=O)O)c(=O)n(-c2ccccc2)n1C", "values": [
      {"measurement": "IC50", "setting": "[1]", "value": "> 100", "unit": "µM"}
    ]},
    {"smiles": "Cc1c(NCS(=O)(=O)O)c(=O)n(-c2ccc(-c3ccoc3)cc2)n1C", "values": [
      {"measurement": "IC50", "setting": "[1]", "value": 8.51, "unit": "µM"}
    ]},
    {"smiles": "Cn1c(C2CC2)c(NCS(=O)(=O)O)c(=O)n1-c1ccccc1", "values": [
      {"measurement": "IC50", "setting": "[1]", "value": 4.65, "unit": "µM"}
    ]}
  ]
}
